How the values were obtained:
Assay type in all cases: in vivo
[1] = test system: Abutilon theophrasti (ABUTH); assay: Post-emergence herbicidal action, greenhouse pot test; conditions: Abutilon theophrasti, 504 h, rated visually after about 3 weeks vs untreated controls, 100% = plants have died
Outline: (§1)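 Activity was scored by eye about 3 weeks after treatment against untreated plants, where 100% means dead plants and 0% means no difference. Plants at the one-leaf stage received a foliar spray of WP or EC formulations in water plus 0.5% additive (600 l/ha, up to 20 g/ha). Plants were grown in sandy loam pots in a greenhouse for 2–3 weeks before spraying.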

[2] = test system: Amaranthus retroflexus (AMARE); assay: as above; conditions: Amaranthus retroflexus, 504 h, rated visually after about 3 weeks vs untreated controls, 100% = plants have died
Outline: as §1

Avena fatua (AVEFA) = assay: as above; conditions: Avena fatua, 504 h, 20 g/ha, rated visually after about 3 weeks vs untreated controls, 100% = plants have died, read-out: Post-emergence action at 20 g/ha against AVEFA in %
Outline: as §1

Lolium rigidum (LOLRI) = assay: as above; conditions: Lolium rigidum, 504 h, dosage 20 g/ha, read-out: Post-emergence action against LOLRI in %
Outline: as §1

[3] = test system: Pharbitis purpurea (PHBPU); assay: as above; conditions: Ipomoea purpurea, 504 h, read-out: Post-emergence action against PHBPU in %
Outline: as §1

[4] = test system: Polygonum convolvulus (POLCO); assay: as above; conditions: Fallopia convolvulus, 504 h, read-out: Post-emergence action against POLCO in %
Outline: as §1

Veronica persica (VERPE) = assay: as above; conditions: Veronica persica, 504 h, read-out: Post-emergence action against VERPE
Outline: as §1

Viola tricolor (VIOTR) = assay: as above; conditions: Viola tricolor, 504 h, read-out: Post-emergence action against VIOTR
Outline: as §1

[5] = test system: Alopecurus myosuroides (ALOMY); assay: Post-emergence herbicidal action, greenhouse pot test (also comparative test C); conditions: Alopecurus myosuroides, 504 h, rated visually after about 3 weeks vs untreated controls, 100% = plants have died
Outline: (§2)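 Green parts of one-leaf-stage plants are sprayed at 600 l/ha with formulated compound plus 0.5% additive, then kept under optimum greenhouse conditions for about 3 weeks. Damage is scored visually, where 100% means dead plants and 0% means no difference from controls.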

[6] = test system: Echinochloa crus-galli (ECHCG); assay: as above
Outline: as §2

[7] = test system: Matricaria inodora (MATIN); assay: as above; conditions: Tripleurospermum inodorum, 504 h, read-out: Post-emergence action against MATIN in %
Outline: as §2

Setaria viridis (SETVI) = assay: as above; conditions: Setaria viridis, 504 h
Outline: as §2

[8] = test system: Triticum aestivum (TRZAS); assay: Post-emergence crop plant compatibility, greenhouse pot test; conditions: 1.25 g/ha, vs untreated controls
Outline: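 Compatibility was scored as visual % effect against untreated controls about 3 weeks after spraying green plant parts at the one-leaf stage. Formulations (WP/EC) were applied in aqueous form with 0.5% additive, 600 l/ha, to greenhouse-grown pot plants.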

Oryza sativa (ORYSA) = assay: Post-emergence crop plant compatibility, greenhouse pot test (also comparative test C); conditions: 1.25 g/ha, vs untreated controls
Outline: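 Visual damage versus untreated plants (0% = like control, 100% = plants died) was scored about 3 weeks after a post-emergence spray in greenhouse pots. Treatment: one-leaf stage, WP or EC in water at 600 l/ha with 0.5% additive; a/b/c mark different dosages on the same crop.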

Cn1c(C(F)(F)F)cc(=O)n(-c2cc(Oc3ccccc3OCC(=O)OCC3CCCO3)c(Cl)cc2F)c1=O (stereo not shown) [I.7-71, Tetrahydrofuran-2-ylmethyl (2-{2-chloro-4-fluoro-5-[3-methyl-2,6-dioxo-4-(trifluoromethyl)-3,6-dihydropyrimidin-1(2H)-yl]phenoxy}phenoxy)acetate]
pest or weed control at 1.25 g/ha ([1]; 1.25 g/ha, read-out: Post-emergence action at 1.25 g/ha against ABUTH in %): 100% | pest or weed control at 5 g/ha ([1]; 5 g/ha, read-out: Post-emergence action at 5 g/ha against ABUTH in %): 100% | pest or weed control at 20 g/ha ([1]; 20 g/ha, read-out: Post-emergence action at 20 g/ha against ABUTH in %): 100% | pest or weed control at 1.25 g/ha ([2]; 1.25 g/ha, read-out: Post-emergence action at 1.25 g/ha against AMARE in %): 100% | pest or weed control at 5 g/ha ([2]; 5 g/ha, read-out: Post-emergence action at 5 g/ha against AMARE in %): 100% | pest or weed control at 20 g/ha ([2]; 20 g/ha, read-out: Post-emergence action at 20 g/ha against AMARE in %): 100% | pest or weed control at 20 g/ha (Avena fatua (AVEFA)): 90% | pest or weed control at 20 g/ha (Lolium rigidum (LOLRI)): 80% | pest or weed control at 1.25 g/ha ([3]; dosage 1.25 g/ha): 100% | pest or weed control at 5 g/ha ([3]; dosage 5 g/ha): 100% | pest or weed control at 20 g/ha ([3]; dosage 20 g/ha): 100% | pest or weed control at 5 g/ha ([4]; dosage 5 g/ha): 100% | pest or weed control at 20 g/ha ([4]; dosage 20 g/ha): 100% | pest or weed control at 1.25 g/ha (Veronica persica (VERPE); 1.25 g/ha): 100% | pest or weed control at 5 g/ha (Veronica persica (VERPE); 5 g/ha): 100% | pest or weed control at 20 g/ha (Veronica persica (VERPE); 20 g/ha): 100% | pest or weed control at 1.25 g/ha (Viola tricolor (VIOTR); 1.25 g/ha): 100% | pest or weed control at 5 g/ha (Viola tricolor (VIOTR); 5 g/ha): 100% | pest or weed control at 20 g/ha (Viola tricolor (VIOTR); 20 g/ha): 100% | pest or weed control at 5 g/ha ([5]; 5 g/ha, read-out: Post-emergence action at 5 g/ha against ALOMY in %): 80% | pest or weed control at 20 g/ha ([5]; 20 g/ha, read-out: Post-emergence action at 20 g/ha against ALOMY in %): 80% | Post-emergence action at 1.25 g/ha against ECHCG in % ([6]; 1.25 g/ha, rated visually after about 3 weeks vs untreated controls, 100% = plants have died): 100% | pest or weed control at 5 g/ha ([6]; Echinochloa crus-galli, 504 h, dosage 5 g/ha, read-out: Post-emergence action against ECHCG in %): 100% | pest or weed control at 20 g/ha ([6]; Echinochloa crus-galli, 504 h, dosage 20 g/ha, read-out: Post-emergence action against ECHCG in %): 100% | pest or weed control at 1.25 g/ha ([7]; dosage 1.25 g/ha): 80% | pest or weed control at 20 g/ha ([7]; dosage 20 g/ha): 100% | pest or weed control at 20 g/ha (Setaria viridis (SETVI); 20 g/ha, read-out: Post-emergence action against SETVI): 100% | pest or weed control at 1.25 g/ha (Setaria viridis (SETVI); dosage 1.25 g/ha, read-out: Post-emergence action against SETVI in %): 100% | pest or weed control at 5 g/ha (Setaria viridis (SETVI); dosage 5 g/ha, read-out: Post-emergence action against SETVI in %): 100% | Post-emergence action against TRZAS (crop plant compatibility) [8]: 0% | Post-emergence action against ORYSA (crop plant compatibility) (Oryza sativa (ORYSA)): 20%

— patent publication US20240025862A1, “SUBSTITUTED N-PHENYLURACILS AND SALTS THEREOF, AND USE THEREOF AS HERBICIDAL ACTIVE SUBSTANCES” (Bayer Aktiengesellschaft, priority 2020, published 2024)
